Data reported in PubChem BioAssay (NCI).
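The compound was tested at five concentrations on cells cultured in 96-well plates, with a 48-hour exposure period. At the GI50, growth is halved. TGI is the concentration that stops growth completely.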

Columns and labels:
Test in all cases: NCI-60 cell line screen, 48 h
[1] = test system: SW-620 colon
[2] = test system: CCRF-CEM leukemia
[3] = test system: IGROV1 ovarian
[4] = test system: HCC-2998 colon
[5] = test system: K-562 leukemia
[6] = test system: SK-OV-3 ovarian
[7] = test system: NCI-H226 lung
[8] = test system: LOX IMVI melanoma
[9] = test system: HT29 colon
[10] = test system: HCT-15 colon

| Compound | TGI [1] [µM] | TGI [2] [µM] | TGI [3] [µM] | TGI [4] [µM] | TGI [5] [µM] | TGI [6] [µM] | TGI [7] [µM] | TGI [8] [µM] | TGI [9] [µM] | GI50 [1] [µM] | GI50 [10] [µM] | TGI [10] [µM] | GI50 [2] [µM] | GI50 [3] [µM] | GI50 [4] [µM] | GI50 [5] [µM] | GI50 [6] [µM] | GI50 [7] [µM] | GI50 [8] [µM] | GI50 [9] [µM] |
| --- | --- | --- | --- | --- | --- | --- | --- | --- | --- | --- | --- | --- | --- | --- | --- | --- | --- | --- | --- | --- |
| CCOC(=O)C(=O)Nc1ccccc1CC | > 100 | > 100 | > 100 | > 100 | > 100 | > 100 | > 100 | > 100 | > 100 | – | – | – | – | – | – | – | – | – | – | – |
| C/C(=N\Nc1ccc(Cl)cn1)c1ccc2ccccc2n1 | > 100 | > 100 | > 100 | > 100 | > 100 | > 100 | > 100 | > 100 | > 100 | 3.83 | 0.64 | > 100 | 0.513 | 2.88 | 3.23 | 3.13 | 3.73 | 11.5 | 2.02 | 5.05 |
| O=C1/C(=C(/c2ccccc2)N2CCOCC2)Cc2ccccc21 | 2.65 | 2.67 | 3.61 | 4.26 | – | 72.6 | 8.99 | 2.52 | 5.28 | 1.2 | 1.55 | 5.02 | 0.467 | 1.46 | 2.08 | 3.42 | 23.1 | 3.39 | 0.92 | 1.83 |
| COC(=O)Nc1nc2ccc(C3(c4ccc(F)cc4)OCCO3)cc2[nH]1 | > 100 | > 100 | > 100 | > 100 | > 100 | > 100 | > 94 | > 100 | > 100 | 0.311 | 0.178 | > 100 | 0.337 | 1.29 | 1.99 | 0.112 | 0.587 | 2.15 | 0.732 | 0.317 |
| CN(C)CCC1(C2=CCCC2)CC/C(=C\c2ccc(Cl)cc2)C1=O (stereo not drawn) | 24.2 | > 22.7 | 21 | 20.2 | > 23.2 | 19.6 | 28.1 | 23.1 | 8.35 | – | – | 16.6 | – | – | – | – | – | – | – | – |
| O=C1C2C3C=C4c5ccccc5N(c5ccccc5)C4(C2C(=O)N1c1ccc([N+](=O)[O-])cc1)[C@H]1C(=O)N(c2ccc([N+](=O)[O-])cc2)C(=O)[C@@H]31 (stereo partly drawn) | > 100 | > 100 | > 100 | > 100 | > 100 | > 100 | > 100 | > 100 | > 100 | – | – | > 100 | – | – | – | – | – | – | – | – |
| Cc1cc(N(CCC#N)CCC#N)ccc1/C=C(\NC(=O)/C=C/c1ccccc1)C(N)=O | > 100 | > 100 | > 100 | > 100 | > 100 | > 100 | > 100 | > 100 | > 100 | – | – | > 100 | – | – | – | – | – | – | – | – |
| CN(Cc1ccccc1)C(=O)c1ccccc1C(=O)O | > 100 | > 100 | > 100 | > 100 | > 100 | > 100 | > 100 | > 100 | > 100 | – | – | > 100 | – | – | – | – | – | – | – | – |
| O=C(Nc1n[nH]c2cc(-c3ccccc3)ccc12)C1CC1 | > 25 | > 25 | > 25 | > 25 | > 25 | > 25 | > 25 | > 25 | > 25 | 4.77 | 4.03 | > 25 | 8.59 | 19.6 | 8.07 | 1.42 | 14.2 | > 25 | 16 | 2.31 |
| CC1=[N+]([O-])c2ccccc2C(=O)C1=O | > 100 | 74.2 | > 100 | > 100 | > 100 | > 100 | > 100 | > 100 | > 100 | – | – | > 100 | – | – | – | – | – | – | – | – |
| COc1cc2ncnc(-n3ncc4cc(NC(=O)Nc5ccccc5)ccc43)c2cc1OC | 17.9 | 13.6 | 4.62 | 11.2 | 15.5 | 4.6 | 4.06 | 2.75 | 10.9 | 3.07 | 0.579 | 11.1 | 2.56 | 0.427 | 1.88 | 2.86 | 0.42 | 1.07 | 0.722 | 0.615 |
| Cc1cc(C(=O)Nc2ccc3cc(CN4CCOCC4)ccc3n2)c(C)n1-c1ccccc1 | 30.5 | > 93.7 | 44.8 | > 100 | > 55.3 | 40.2 | 5.92 | 15.2 | > 100 | 4.18 | 2.41 | 20.4 | 1.86 | 3.92 | 8.78 | 1.06 | 4.54 | 0.374 | 1.99 | 2.71 |
| COc1ccc(C2=C(Cl)c3cc(OC)c(OC)cc3C2Cl)cc1 (stereo not drawn) | 32.9 | 21 | 35.7 | 28.1 | > 53.1 | 34.3 | 66 | 27.5 | 28.8 | – | – | 30.6 | – | – | – | – | – | – | – | – |
| CCOC(=O)CCC(=O)C1c2cccc(O)c2C(=O)c2c(O)cc(C)cc21 (stereo not drawn) | 2.9 | 2.75 | 0.846 | 2.09 | 10.9 | 2.01 | 1.75 | 1.97 | 7.17 | – | – | 2.25 | – | – | – | – | – | – | – | – |
| COc1cc(/C=C/c2ccc(OC)c(O)c2)cc(OC)c1 | 13.7 | 15.2 | 86.4 | 42.6 | 8.64 | 86.6 | 16.7 | 34.2 | 32.3 | – | – | 24.2 | – | – | – | – | – | – | – | – |
| COc1cc2[nH]c3c(c2cc1OC)CCN[C@]31CC[C@]2(CC3c4c(cc(OC)c(O)c42)CCN3C)C[C@H]1OC (stereo partly drawn) | 53.3 | 26.7 | 80.6 | 29.8 | 23.7 | 59.1 | > 100 | 56 | 63.3 | – | – | 43.1 | – | – | – | – | – | – | – | – |
